From patent US20170095440A1, “METHOD OF TREATING CANINE PANCREATITIS” (CK9, LLC, priority 2014, published 2017)
“And” between values parts separate entries of the source, which are not always exact repeats. Identical values can stand only once. “Also recorded” adds a separate entry of the source.

Key:
[1] = tested on: dogs with suspected chronic pancreatitis; test: Serum cTLI before and after treatment, clinical trial; type: in vivo, dog
Description: Treatment effects on overall health status, quality of life, and clinical signs were also evaluated with serum biochemistry profiles, complete blood counts, and owner questionnaires.
Dogs were identified by screening current submissions to the Gastrointestinal Laboratory at Texas A&M indicative of pancreatitis (canine pancreas-specific lipase≧400 μg/L) using an immunoassay for measurement of canine pancreas-specific lipase in canine serum known as the spec CPL® Test (IDEXX, Laboratories). A number of potential study participants were directly referred to the investigator by veterinarians, based on positive pet-side SNAP cPL® Test (IDEXX Laboratories, Westbrook, Me., USA) results and concomitant clinical signs. After ascertaining individual suitability of a patient with the referring veterinarian, serum canine pancreas-specific lipase concentration, serum biochemistry profile, and complete blood count were evaluated or re-evaluated 12±4 days after collection of the initial sample submission to the Gastrointestinal Laboratory. Based on the assumption that consecutive canine pancreas-specific lipase elevations indicate chronic pancreatitis, enrollment was offered for patients with canine pancreas-specific lipase concentrations≧400 μg/L, serum triglyceride concentrations below 500 mg/dL, and no indication of hepatic, renal, or other organ disease. […] Owner consent was required prior to phlebotomy and for enrollment into the trial.
[…] […] Individual patients were medicated for between 21 to 31 days.
Blood samples were collected before beginning the treatment and after completion of the treatment period. Complete blood count (red blood cell count, hematocrit, mean corpuscular volume, mean corpuscular hemoglobin, mean corpuscular hemoglobin concentration, differential and absolute white blood cell count, red blood cell count, hemoglobin, platelet estimate, red blood cell morphology, white blood cell morphology, and hemoparasites) was evaluated at the Texas Veterinary Medical Diagnostic Laboratory (TVMDL). A serum chemistry profile with electrolytes (glucose, blood urea nitrogen, creatinine, calcium, phosphorus, albumin, total protein, total bilirubin, alkaline phosphatase, alanine amino transferase, aspartate amino transferase, γ-glutamyl transferase, cholesterol, triglycerides, globuline, sodium, potassium, and chloride) was performed on a SIRRUS analyzer (Stanbio, Boerne, Tex., USA). Serum concentrations of cPL (RI: 0-200 μg/L; Spec cPL® IDEXX Laboratories, Westbrook, Me., USA), cTLI (RI: 5.7-45.2 μg/L; Canine TLI DOUBLE ANTIBODY®, Siemens Healthcare Diagnostics, Los Angeles, Calif., USA), cobalamin (RI: 251-908 ng/L), and folate (RI: 7.7-24.4 μg/L; Immulite 2000®, Siemens Healthcare Diagnostics Inc., Deerfield, Ill., USA), canine specific C-reactive protein (RI: 0-7.6 mg/L, Tridelta Development Limited, Maynooth, CO. Kildare, Ireland), S100A12 (RI: 56-331 μg/L, Gastrointestinal Laboratory in-house radioimmunoassay), and TGF-β1 (RI: 38-72 ng/mL; Quantikine® ELISA, R&D Systems, Minneapolis, […]., USA) were performed at the Gastrointestinal Lab at Texas A&M University.
Pre-treatment and post-treatment results for all diagnostic tests were statistically analyzed using Prism 6 (GraphPad Software, La Jolla, Calif., USA). The D'Agostino-Pearson omnibus test was used to evaluate all datasets for Gaussian distribution. Groups were compared using a paired t-test for normally-distributed data sets and a Wilcoxon matched-pairs test when Gaussian distribution could not be assumed. Mean values and standard deviation are reported for data sets with Gaussian distribution. Median and minimum/maximum values are reported for data sets where Gaussian distribution could not be assumed. The significance threshold was set at p=0.05.

TGF-β1 = details: one published study, cited from earlier work
Beagle dogs = test: Rising-dose tolerance study, oral capsule; type: in vivo, dog
Description: The following parameters and end points were evaluated in the rising-dose phase of this study: clinical signs, body weights, body weight changes, food consumption, electrocardiography, clinical pathology parameters (hematology, clinical chemistry, and urinalysis), and gross necropsy findings.
3 male and 3 female Beagle dogs were received from Marshall BioResources, North Rose, N.Y. The animals were examined and weighed on the day following receipt. The rising-dose phase animals were 6 months old and weighed 7.5 kg and 8.3 kg at initiation of dosing. The multiple-dose phase animals were 7 months old and weighed 7.4 kg and 7.6 kg at initiation of dosing.
For the rising-dose phase, the test article was administered to the appropriate animals by oral capsule. At least a 3-day washout period was maintained before proceeding to the next dose level; therefore, dosing occurred on Days 1, 5, 9, 15, and 19. The dose amount for each animal was based on the most recent body weight measurement. The first day of dosing was designated as Study Day 1.
The animals were removed from the cage and a detailed clinical observation was performed daily, beginning during Week −1, 1 to 3 hours postdose on days of dosing. Each animal was weighed on the day of randomization and Days 1, 5, 9, 15, 19, and 22. Food consumption was quantitatively measured for each animal daily, starting Week −1, throughout the dosing period, except for on the day of scheduled euthanasia. Electrocardiogram (ECG) measurements were obtained from all animals using leads I, II, III, aVR, aVL, and aVF and a chart speed of 50 mm/second. The ECG measurements were obtained once pretreatment and at approximately 3 hours postdose on Days 1, 5, 9, 15, and 19. Only lead II was evaluated by a board-certified veterinary cardiologist.
Blood was collected by venipuncture of the jugular vein. Urine was collected overnight by cage pan drainage. After collection, samples were transferred to the clinical pathology laboratory for processing. The animals were fasted overnight prior to scheduled clinical pathology sample collections, but had access to water ad libitum. Samples were collected according to Table 5.
Rising-dose phase animals surviving until scheduled euthanasia were weighed, samples for evaluation of clinical pathology parameters were collected as specified above, and the animals were euthanized by sodium pentobarbital injection, followed by exsanguination. Animals were fasted overnight before their scheduled necropsy.
Rising-dose phase animals were subjected to a complete necropsy examination, which included evaluation of the carcass and musculoskeletal system; all external surfaces and orifices; cranial cavity and external surfaces of the brain; and thoracic, abdominal, and pelvic cavities with their associated organs and tissues. Necropsy examinations were conducted under the supervision of a board-certified veterinary pathologist.

rats = details: cited from earlier work
[2] = following each dose, 10-250 mg/kg, methanesulfonate

For `CN(C)C(=O)COC(=O)Cc1ccc(OC(=O)c2ccc(NC(=N)N)cc2)cc1` [Camostat Mesilate, N,N-dimethylcarbamoylmethyl-4-(4-guanidinobenzoyloxy)phenylacetate methanesulfonate], the “Change in serum cTLI, pre- vs post-treatment” value (“Change in serum cTLI” for short) ([1]; 4 mg/kg q 8 hrs, n=11, methanesulfonate) was “no significant difference; also recorded: did not change significantly”, the “Serum cTLI concentration post-treatment (median)” value ([1]; 4 mg/kg q 8 hrs, n=11, pre-treatment median 22, post range 17-55, p=0.8311) was 28 µg/L and the “Change in serum cTLI” value ([1]; 8 mg/kg q 8 hrs, n=17, methanesulfonate) was “no significant difference; also recorded: No significant changes”. For the same molecule, the “Serum cTLI concentration post-treatment (median)” value ([1]; 8 mg/kg q 8 hrs, n=17, pre-treatment median 35, p=0.1594, methanesulfonate) was 22 µg/L and 24 µg/L, the “Change in serum cTLI” value ([1]; all treated dogs combined, n=28, methanesulfonate) was “no significant difference; also recorded: No significant changes” and the “Serum cTLI concentration post-treatment (median)” value ([1]; all treated dogs combined, n=28, pre-treatment median 32, post range 6-81, p=0.2098) was 25 µg/L. The “Hepatic stellate cell activation and hepatic fibrosis” value (TGF-β1) was “attenuated hepatic stellate cell activation as well as hepatic fibrosis”, the “Systemic or local side effects” value (TGF-β1) was “without entailing apparent systemic or local side effects” and the TGF-β1 concentrations (TGF-β1; methanesulfonate) was “decreased TGF-β1 concentrations; also recorded: suppressed”. For the same molecule, the Clinical observations (Beagle dogs; 10 mg/kg single oral dose) was “soft feces were noted in the female the day after dosing”, the Clinical observations (Beagle dogs; 30 mg/kg single oral dose) was “no clinical observations noted” and the Clinical observations (Beagle dogs; 100 mg/kg single oral dose) was “clear ocular discharge was observed in the female”. For the same molecule, the Clinical observations (Beagle dogs; 200 mg/kg single oral dose, methanesulfonate) was “slight salivation and soft feces/feces with mucoid material were observed in the male and female”, the Clinical observations (Beagle dogs; 250 mg/kg single oral dose, methanesulfonate) was “severe salivation was observed following dosing in the male and female; also recorded: salivation and soft feces/feces with mucoid material” and the Gross necropsy findings (Beagle dogs; Day 22) was “no gross necropsy findings”. For the same molecule, the Body weight (Beagle dogs; between doses, 10-250 mg/kg) was “no notable changes”, the Food consumption (Beagle dogs; between doses, 10-250 mg/kg) was “no notable changes” and the “Clinical chemistry, potential test article-related changes” value (Beagle dogs; female, following the 200 and 250 mg/kg doses) was “increased creatine kinase”. The Hematology parameters (Beagle dogs; [2]) was “no toxicologically meaningful changes; also recorded: no notable changes”, the Urinalysis parameters (Beagle dogs; [2]) was “no toxicologically meaningful changes; also recorded: no notable changes” and the “Clinical chemistry, potential test article-related changes” value (Beagle dogs; male, following the 250 mg/kg dose) was “increased creatinine, total bilirubin, and urea nitrogen”. For the same molecule, the Survival (Beagle dogs; single oral doses 10, 30, 100, 200, 250 mg/kg, 1 male and 1 female, methanesulfonate) was “No rising-dose phase animals died; also recorded: All animals survived to scheduled euthanasia”, the “Clinical signs up to 30 minutes postdose” value (rats; 1300 mg/kg/day) was “preening and a slight decrease in locomotor activity” and the Body weight gain (rats; 550 and 1300 mg/kg/day) was “suppressed”. The “Clinical signs immediately after dosing” value (rats; all treated groups: 100, 235, 550, 1300 mg/kg/day, 90 and 180 days) was “hypersalivation”.
